Toxic doses and inconclusive results are not listed. Cut-off read from the data, not from the text of the source: active = T/C of 150% or more; inactive = T/C below 125%.
Tested on: L1210 leukemia ip in BDF1 mice, survival T/C
Test: NCI In Vivo Anticancer Drug Screen. Data for tumor model L1210 Leukemia (intraperitoneal) in B6D2F1 (BDF1) mice
Settings: endpoint: mean survival time, higher = longer survival
Method in brief: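 Antitumor effect is assessed in tumor-bearing animals. Survival in the compound arm is compared with a vehicle-dosed control arm and expressed as their quotient.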

[1] = dose: 100.0 mg/kg/injection, schedule: Q04DX003 (ip), vehicle: saline
[2] = dose: 200.0 mg/kg/injection, schedule: Q04DX003 (ip), vehicle: saline
[3] = dose: 50.0 mg/kg/injection, schedule: Q01DX009 (ip), vehicle: saline with Tween-80
[4] = dose: 100.0 mg/kg/injection, schedule: Q04DX003 (ip), vehicle: saline with Tween-80
[5] = dose: 200.0 mg/kg/injection, schedule: Q04DX003 (ip), vehicle: saline with Tween-80
[6] = dose: 50.0 mg/kg/injection, schedule: Q01DX001 (ip), vehicle: carboxymethylcellulose (CMC)
[7] = dose: 100.0 mg/kg/injection, schedule: Q01DX009 (ip), vehicle: saline with Tween-80
[8] = dose: 200.0 mg/kg/injection, schedule: Q01DX009 (ip), vehicle: saline with Tween-80
[9] = dose: 400.0 mg/kg/injection, schedule: Q01DX009 (ip), vehicle: saline with Tween-80
[10] = dose: 100.0 mg/kg/injection, schedule: Q01DX001 (ip), vehicle: saline
[11] = dose: 200.0 mg/kg/injection, schedule: Q01DX001 (ip), vehicle: saline
[12] = dose: 50.0 mg/kg/injection, schedule: Q01DX001 (ip), vehicle: saline
[13] = dose: 100.0 mg/kg/injection, schedule: Q01DX009 (ip), vehicle: saline

Measured: T/C

NC(CS)=NCC12CC3CC(CC(C3)C1)C2
inactive: dose: 12.5 mg/kg/injection, schedule: Q04DX003 (ip), vehicle: carboxymethylcellulose (CMC) 93 % of control | dose: 25.0 mg/kg/injection, schedule: Q04DX003 (ip), vehicle: carboxymethylcellulose (CMC) 98 % of control

CC(=O)C(C)(NCc1ccccc1)c1ccccc1 (stereo not given)
inactive: dose: 50.0 mg/kg/injection, schedule: Q04DX003 (ip), vehicle: saline 97 % of control | dose: 100.0 mg/kg/injection, schedule: Q04DX003 (ip), vehicle: other 95 % of control | [1] 97 % of control | dose: 200.0 mg/kg/injection, schedule: Q04DX003 (ip), vehicle: other 93 % of control | [2] 102 % of control | dose: 400.0 mg/kg/injection, schedule: Q04DX003 (ip), vehicle: other 87 % of control

O=S(=O)(Nc1nccs1)c1ccc(N(CCCl)CCCl)cc1
inactive: dose: 50.0 mg/kg/injection, schedule: Q01DX009 (ip), vehicle: Klucel (hydroxypropylcellulose) (HPC) 116 % of control

CN(C)CCC(=O)c1ccc2cc(Br)c3ccccc3c2c1
inactive: dose: 13.3 mg/kg/injection, schedule: Q01DX Z (ip), vehicle: methylcellulose (MC) 91 % of control | dose: 30.0 mg/kg/injection, schedule: Q01DX Z (ip), vehicle: methylcellulose (MC) 95 % of control

CCCCCCCCCCC(CCCCCCCCCC)CC1CCCC1
inactive: dose: 75.0 mg/kg/injection, schedule: Q01DX001 (ip), vehicle: saline with Tween-80 100 % of control | dose: 150.0 mg/kg/injection, schedule: Q01DX001 (ip), vehicle: saline with Tween-80 103 % of control | dose: 300.0 mg/kg/injection, schedule: Q01DX001 (ip), vehicle: saline with Tween-80 97 % of control

COc1nc(Cl)cc2c1ncn2C1OC(CO)C(O)C1O (stereo not given)
inactive: dose: 100.0 mg/kg/injection, schedule: Q01DX005 (ip), vehicle: saline 111 % of control | dose: 200.0 mg/kg/injection, schedule: Q01DX005 (ip), vehicle: saline 108 % of control

Cc1ccc(SC2=C(Br)C(=O)c3ccccc3C2=O)cc1
inactive: dose: 37.5 mg/kg/injection, schedule: Q01DX001 (ip), vehicle: carboxymethylcellulose (CMC) 92 % of control | dose: 75.0 mg/kg/injection, schedule: Q01DX001 (ip), vehicle: carboxymethylcellulose (CMC) 94 % of control | dose: 150.0 mg/kg/injection, schedule: Q01DX001 (ip), vehicle: carboxymethylcellulose (CMC) 103 % of control

N#CC(C#N)C(=O)c1ccccc1
inactive: dose: 12.5 mg/kg/injection, schedule: Q01DX009 (ip), vehicle: saline with Tween-80 100 % of control | dose: 25.0 mg/kg/injection, schedule: Q01DX009 (ip), vehicle: saline with Tween-80 100 % of control | [3] 96 % of control | [4] 95 % of control | [5] 95 % of control | dose: 400.0 mg/kg/injection, schedule: Q04DX003 (ip), vehicle: saline with Tween-80 89 % of control

CN(C)C(=O)Sc1ccc2c(c1)CCC1C2CCC2(C)C(=O)CCC12 (stereo not given)
inactive: dose: 100.0 mg/kg/injection, schedule: Q01DX001 (ip), vehicle: gum acacia 101 % of control | dose: 200.0 mg/kg/injection, schedule: Q01DX001 (ip), vehicle: gum acacia 101 % of control | dose: 400.0 mg/kg/injection, schedule: Q01DX001 (ip), vehicle: gum acacia 97 % of control

CC(C)(C)C1CCC(N)CC1 (stereo not given)
inactive: dose: 12.5 mg/kg/injection, schedule: Q01DX001 (ip), vehicle: carboxymethylcellulose (CMC) 104 % of control | dose: 25.0 mg/kg/injection, schedule: Q01DX001 (ip), vehicle: carboxymethylcellulose (CMC) 98 % of control | [6] 104 % of control

O=C(Nc1ccccc1)c1ccccc1C(O)(c1ccccc1)c1ccc(Cl)cc1 (stereo not given)
inactive: [7] 92 % of control | [8] 90 % of control | [9] 93 % of control

Cc1nc(N)[nH]c(=O)c1CCCN=Cc1ccc([N+](=O)[O-])cc1
inactive: dose: 18.75 mg/kg/injection, schedule: Q01DX001 (ip), vehicle: Klucel (hydroxypropylcellulose) (HPC) 95 % of control | dose: 37.5 mg/kg/injection, schedule: Q01DX001 (ip), vehicle: Klucel (hydroxypropylcellulose) (HPC) 101 % of control | dose: 75.0 mg/kg/injection, schedule: Q01DX001 (ip), vehicle: Klucel (hydroxypropylcellulose) (HPC) 101 % of control

COc1ccc(OC(=O)Nc2cc([N+](=O)[O-])ccc2F)cc1
inactive: dose: 100.0 mg/kg/injection, schedule: Q01DX009 (ip), vehicle: Klucel (hydroxypropylcellulose) (HPC) 106 % of control | dose: 200.0 mg/kg/injection, schedule: Q01DX009 (ip), vehicle: Klucel (hydroxypropylcellulose) (HPC) 93 % of control | dose: 400.0 mg/kg/injection, schedule: Q01DX009 (ip), vehicle: Klucel (hydroxypropylcellulose) (HPC) 93 % of control

CCC(C)Nc1ccc([N+](=O)[O-])cc1 (stereo not given)
inactive: dose: 75.0 mg/kg/injection, schedule: Q01DX009 (ip), vehicle: other 95 % of control | dose: 150.0 mg/kg/injection, schedule: Q01DX009 (ip), vehicle: other 102 % of control | dose: 300.0 mg/kg/injection, schedule: Q01DX009 (ip), vehicle: other 113 % of control

CCCCc1cccc2c1OCO2
inactive: [10] 103 % of control | [11] 103 % of control

O=C(Nn1cn[nH]c1=S)Oc1ccccc1
inactive: [4] 103 % of control | [5] 103 % of control

OCC[N-]CCCN=Cc1ccccc1O.OCC[N-]CCCN=Cc1ccccc1O.[Co+2]
inactive: [12] 96 % of control | [10] 100 % of control

O=C(CCN1CC=C(c2ccccc2)CC1)c1ccc(Oc2ccccc2)cc1
inactive: [3] 100 % of control | [7] 96 % of control | [4] 96 % of control | [8] 105 % of control | [5] 94 % of control

C=C(Br)C(C)N (stereo not given)
inactive: [13] 104 % of control

O/N=c1/cc(-c2ccc(Cl)cc2)ss1
inactive: [13] 91 % of control | [1] 93 % of control | dose: 200.0 mg/kg/injection, schedule: Q01DX009 (ip), vehicle: saline 89 % of control | [2] 95 % of control | dose: 400.0 mg/kg/injection, schedule: Q01DX009 (ip), vehicle: saline 96 % of control | dose: 400.0 mg/kg/injection, schedule: Q04DX003 (ip), vehicle: saline 97 % of control

c1ccc(C2OCCOC2c2ccccc2)cc1 (stereo not given)
inactive: dose: 100.0 mg/kg/injection, schedule: Q01DX001 (ip), vehicle: carboxymethylcellulose (CMC) 101 % of control | dose: 200.0 mg/kg/injection, schedule: Q01DX001 (ip), vehicle: carboxymethylcellulose (CMC) 103 % of control | dose: 400.0 mg/kg/injection, schedule: Q01DX001 (ip), vehicle: carboxymethylcellulose (CMC) 101 % of control

O=[N+]([O-])c1ccc(SCCCN2CCCCC2)c([N+](=O)[O-])c1
inactive: [6] 96 % of control

CC(OC1CCCCO1)C1CCC2C3CCC4=CC(=O)CCC4(C)C3CCC12C (stereo not given)
inactive: dose: 50.0 mg/kg/injection, schedule: Q01DX001 (sc), vehicle: steriod suspending solution 103 % of control | dose: 100.0 mg/kg/injection, schedule: Q01DX001 (sc), vehicle: steriod suspending solution 105 % of control | dose: 200.0 mg/kg/injection, schedule: Q01DX001 (sc), vehicle: steriod suspending solution 103 % of control | dose: 400.0 mg/kg/injection, schedule: Q01DX001 (sc), vehicle: steriod suspending solution 111 % of control

CSC(SC)=C(C#N)C#N
inactive: dose: 25.0 mg/kg/injection, schedule: Q04DX002 (ip), vehicle: saline 101 % of control

CCC(COC(=O)c1ccc([N+](=O)[O-])cc1)NCCC1CCCCC1 (stereo not given)
inactive: dose: 75.0 mg/kg/injection, schedule: Q01DX001 (ip), vehicle: saline 101 % of control | dose: 150.0 mg/kg/injection, schedule: Q01DX001 (ip), vehicle: saline 104 % of control | dose: 300.0 mg/kg/injection, schedule: Q01DX001 (ip), vehicle: saline 103 % of control

CC(=O)NC1C(OC(C)=O)OC2COCOC2C1OC(C)=O (stereo not given)
inactive: dose: 100.0 mg/kg/injection, schedule: Q01DX001 (ip), vehicle: saline with Tween-80 97 % of control | dose: 200.0 mg/kg/injection, schedule: Q01DX001 (ip), vehicle: saline with Tween-80 97 % of control | dose: 400.0 mg/kg/injection, schedule: Q01DX001 (ip), vehicle: saline with Tween-80 105 % of control

O=C(O)CO
inactive: [12] 94 % of control | [10] 97 % of control | [7] 107 % of control | [11] 108 % of control | [8] 100 % of control | [9] 93 % of control

O=C(C(Cl)(Cl)CO)C(Cl)(Cl)CO
inactive: [10] 91 % of control | [11] 94 % of control | dose: 400.0 mg/kg/injection, schedule: Q01DX001 (ip), vehicle: saline 92 % of control

From PubChem BioAssay AID248 (DTP/NCI, 2004)
